Consider 21 molecules from EP3319959B1, “HETERO-HALO INHIBITORS OF HISTONE DEACETYLASE” (Alkermes, Inc., priority 2015, dated 2017).

One assay has as its system recombinant human HDACs. Nature of the assay: HDAC enzymatic assay (LabChip capillary electrophoresis). The assay is classed as biochemical. The conditions noted are these: 5 nM HDAC enzyme, 1 uM substrate, 5 hours pre-incubation, 17 hours reaction at 25°C; isoform not given. On the procedure:
All recombinant human HDACs were purchased from BPS Bioscience. The substrate, FAM-TSRHK(AC)KL-CONH, was synthesized at NanoSyn. Final assay reactions contained 100 mM HEPES (pH 7.5), 50 mM KCl, 0.1% BSA, 0.01% Triton X-100, 1% DMSO, 1 uM substrate and 5 nM HDAC enzyme. Enzyme and compounds were pre-incubated at 25°C for 5 hours and reactions were initiated by addition of substrate. 10 uL reactions were incubated for 17 hours at 25°C and terminated by the addition of 40 uL of buffer containing 100 mM HEPES (pH 7.5), 0.1% BSA, 0.01% Triton X-100 and 0.05% SDS. Substrate and product peptides present in each sample were separated electrophoretically using the LabChip 3000 capillary electrophoresis instrument. Change in the relative fluorescence intensity of the substrate and product peaks reflects enzyme activity. Reaction progress was determined as the product to sum ratio (PSR): P/(S+P), where P is the peak height of the product peptide and S is the peak height of the substrate peptide. Reactions were performed in duplicate at 12 concentrations, (3X serial dilutions starting at 30 uM). IC50 values were calculated using a 4 Parameter Logistic Model.
Regarding `CN1CCC(N2C[C@@H]3[C@H](C2)[C@H]3C(=O)Nc2nc(-c3ccc(F)cc3)ccc2N)CC1` (stereo in doubt) [Compound 263], the IC50 fell in the range of 500 to 5000 nM.
Still for that read-out and setting: the same measure for `Nc1ccc(-c2cccs2)nc1NC(=O)N1Cc2cc(CN3CCCC3)cnc2C1` [Compound 144]: 100 to 500 nM.
Still for that read-out and setting: the same measure for `CN(C)Cc1cnc2c(c1)CN(C(=O)Nc1nc(-c3cccs3)ccc1N)C2` [Compound 145]: 100 to 500 nM.
Turning to `CN(C)Cc1ccc(C2CN(C(=O)Nc3nc(-c4ccc(F)cc4)ccc3N)C2)cc1` [Compound 146], the IC50 fell in the range of 100 to 500 nM.
With `CN1CC=C(c2cc3c(cn2)CN(C(=O)Nc2nc(-c4ccc(F)cc4)ccc2N)C3)CC1` [Compound 148], the IC50 was 100 to 500 nM.
For the molecule `CN1CCC(c2cc3c(cn2)CN(C(=O)Nc2nc(-c4ccc(F)cc4)ccc2N)C3)CC1` [Compound 149], the IC50 fell in the range of 100 to 500 nM.
Turning to `CN(C)Cc1cnc2c(c1)CN(C(=O)Nc1nc(-c3ccc(F)cc3)ccc1N)C2` [Compound 154], the IC50 is 100 to 500 nM.
On the same count and under the same terms, the same measure for `Nc1ccc(-c2ccc(F)cc2)nc1NC(=O)N1Cc2cc(CN3CCCC3)cnc2C1` [Compound 155]: 100 to 500 nM.
The same measure, in the same setting: the figure for `Nc1ccc(-c2cccs2)nc1NC(=O)N1Cc2nccnc2C1` [Compound 156] is 100 to 500 nM.
Still for that read-out and setting: the same measure for `CN1CCN(c2cnc3c(c2)CN(C(=O)Nc2nc(-c4ccc(F)cc4)ccc2N)C3)CC1` [Compound 159]: 100 to 500 nM; for `CN(C)Cc1cnc2c(c1)CN(C(=O)Nc1nc(-c3cccnc3)ccc1N)C2` [Compound 161]: 100 to 500 nM.
As to `CN(C)Cc1cc2c(cn1)CN(C(=O)Nc1nc(-c3ccc(F)cc3)ccc1N)C2` [Compound 162], the half-maximal inhibitory concentration (IC50) is 100 to 500 nM.
Turning to `CN1CCc2sc(C(=O)Nc3nc(-c4ccco4)ccc3N)nc2C1` [Compound 163], the 50% inhibitory concentration (IC50) was in the range of 100 to 500 nM.
Same read-out and setting: the figure for `COCc1cc2c(cn1)CN(C(=O)Nc1nc(-c3ccc(F)cc3)ccc1N)C2` [Compound 243] is 100 to 500 nM.
The same measure, in the same setting: the figure for `CN1CCC(c2cnc3c(c2)CN(C(=O)Nc2nc(-c4cccs4)ccc2N)C3)CC1` [Compound 250] is 100 to 500 nM; for `CN1CC=C(c2cnc3c(c2)CN(C(=O)Nc2nc(-c4cccs4)ccc2N)C3)CC1` [Compound 251] it is 100 to 500 nM.
Still for that read-out and setting: the figure for `CN1CCC(c2cnc3c(c2)CN(C(=O)Nc2nc(-c4ccc(F)cc4)ccc2N)C3)CC1` [Compound 252] is 100 to 500 nM; for `CN1CC=C(c2cnc3c(c2)CN(C(=O)Nc2nc(-c4ccc(F)cc4)ccc2N)C3)CC1` [Compound 253] it is 100 to 500 nM.
Regarding `Cn1cc2c(n1)CN(C(=O)Nc1nc(-c3ccc(F)cc3)ccc1N)C2` [Compound 257], the IC50 lay in the range of 100 to 500 nM.
`Cn1ncc2c1CN(C(=O)Nc1nc(-c3ccc(F)cc3)ccc1N)C2` [Compound 258]: the IC50 was 500 to 5000 nM.
Same read-out and setting: the figure for `CN1CCC(c2cnc3c(c2)CN(C(=O)Nc2nc(-c4cccnc4)ccc2N)C3)CC1` [Compound 265] is 500 to 5000 nM.

The next assay relates to SH-SY5Y cells. Put plainly: Cell assay in SH-SY5Y cells with HDAC-Glo 2 reagent. The assay is classed as cell-based. The conditions noted are these: Homo sapiens, 5 h, five hours at 37°C, CI-994 at 100 uM defined as 100% inhibition. On the procedure:
SH-SY5Y cells (Sigma) were cultured in Eagle's Modified Essential Medium supplemented with 10% fetal bovine serum and pen/strep. Twenty-four hours prior to compound dosing 20 uL of cells were plated in white 384 well plates at a density of 1,500 cells/well. Compounds were serially diluted in neat DMSO and then diluted 1:100 v/v into media without FBS and mixed. Media was removed from the plated cells and the diluted compounds in serum free media (1% v/v final DMSO) were added and incubated at 37°C for five hours. Ten uL of HDAC-Glo 2 reagent with 0.1% Triton X-100 was then added, the plate was mixed and allowed to develop at room temperature for 100 minutes. Plates were then read with a Spectramax LMax luminometer employing a 0.4s integration time. Dose response curves were constructed with normalized data where CI-994 at 100 uM was defined as 100% inhibition and DMSO alone as 0% inhibition. Table 5. IC50 and EC50 Values for Exemplary Compounds Useful in the Invention
As to `CN1CCC(N2C[C@@H]3[C@H](C2)[C@H]3C(=O)Nc2nc(-c3ccc(F)cc3)ccc2N)CC1` (stereo in doubt) [Compound 263], the half-maximal effective concentration (EC50) was 500 to 5000 nM.
`Nc1ccc(-c2cccs2)nc1NC(=O)N1Cc2cc(CN3CCCC3)cnc2C1` [Compound 144] registered an EC50 of 100 to 500 nM.
On to `CN(C)Cc1cnc2c(c1)CN(C(=O)Nc1nc(-c3cccs3)ccc1N)C2` [Compound 145], for which the 50% effective concentration (EC50) was 100 to 500 nM.
`CN(C)Cc1ccc(C2CN(C(=O)Nc3nc(-c4ccc(F)cc4)ccc3N)C2)cc1` [Compound 146] showed a 50% effective concentration (EC50) of 500 to 5000 nM.
The same measure, in the same setting: the same measure for `CN1CC=C(c2cc3c(cn2)CN(C(=O)Nc2nc(-c4ccc(F)cc4)ccc2N)C3)CC1` [Compound 148]: 500 to 5000 nM; for `CN1CCC(c2cc3c(cn2)CN(C(=O)Nc2nc(-c4ccc(F)cc4)ccc2N)C3)CC1` [Compound 149]: 100 to 500 nM; for `CN(C)Cc1cnc2c(c1)CN(C(=O)Nc1nc(-c3ccc(F)cc3)ccc1N)C2` [Compound 154]: 100 to 500 nM.
Same read-out and setting: the same measure for `Nc1ccc(-c2ccc(F)cc2)nc1NC(=O)N1Cc2cc(CN3CCCC3)cnc2C1` [Compound 155]: 100 to 500 nM.
`Nc1ccc(-c2cccs2)nc1NC(=O)N1Cc2nccnc2C1` [Compound 156] came in with a 50% effective concentration (EC50) of 100 to 500 nM.
On the same count and under the same terms, the same measure for `CN1CCN(c2cnc3c(c2)CN(C(=O)Nc2nc(-c4ccc(F)cc4)ccc2N)C3)CC1` [Compound 159]: 500 to 5000 nM.
In turn, `CN(C)Cc1cnc2c(c1)CN(C(=O)Nc1nc(-c3cccnc3)ccc1N)C2` [Compound 161] displayed an EC50 of 100 to 500 nM.
`CN(C)Cc1cc2c(cn1)CN(C(=O)Nc1nc(-c3ccc(F)cc3)ccc1N)C2` [Compound 162] registered an EC50 of 100 to 500 nM.
`CN1CCc2sc(C(=O)Nc3nc(-c4ccco4)ccc3N)nc2C1` [Compound 163] came in with an EC50 of 100 to 500 nM.
Consider `COCc1cc2c(cn1)CN(C(=O)Nc1nc(-c3ccc(F)cc3)ccc1N)C2` [Compound 243], for which the EC50 was in the range of 500 to 5000 nM.
For `CN1CCC(c2cnc3c(c2)CN(C(=O)Nc2nc(-c4cccs4)ccc2N)C3)CC1` [Compound 250], the EC50 was 100 to 500 nM.
On to `CN1CC=C(c2cnc3c(c2)CN(C(=O)Nc2nc(-c4cccs4)ccc2N)C3)CC1` [Compound 251], for which the EC50 lay in the range of 100 to 500 nM.
The same measure, in the same setting: the same measure for `CN1CCC(c2cnc3c(c2)CN(C(=O)Nc2nc(-c4ccc(F)cc4)ccc2N)C3)CC1` [Compound 252]: 100 to 500 nM; for `CN1CC=C(c2cnc3c(c2)CN(C(=O)Nc2nc(-c4ccc(F)cc4)ccc2N)C3)CC1` [Compound 253]: 100 to 500 nM.
Same read-out and setting: the figure for `Cn1cc2c(n1)CN(C(=O)Nc1nc(-c3ccc(F)cc3)ccc1N)C2` [Compound 257] is 100 to 500 nM.
In the case of `Cn1ncc2c1CN(C(=O)Nc1nc(-c3ccc(F)cc3)ccc1N)C2` [Compound 258], the EC50 was in the range of 500 to 5000 nM.
Same read-out and setting: the same measure for `CN1CCC(c2cnc3c(c2)CN(C(=O)Nc2nc(-c4cccnc4)ccc2N)C3)CC1` [Compound 265]: 500 to 5000 nM.
